# Where two headings read alike, the source gives them in different places.
# Molecular target: T1, LATS2 (Homo sapiens, UniProt Q9NRM7)
# T1 sequence (Q9NRM7 1-1088): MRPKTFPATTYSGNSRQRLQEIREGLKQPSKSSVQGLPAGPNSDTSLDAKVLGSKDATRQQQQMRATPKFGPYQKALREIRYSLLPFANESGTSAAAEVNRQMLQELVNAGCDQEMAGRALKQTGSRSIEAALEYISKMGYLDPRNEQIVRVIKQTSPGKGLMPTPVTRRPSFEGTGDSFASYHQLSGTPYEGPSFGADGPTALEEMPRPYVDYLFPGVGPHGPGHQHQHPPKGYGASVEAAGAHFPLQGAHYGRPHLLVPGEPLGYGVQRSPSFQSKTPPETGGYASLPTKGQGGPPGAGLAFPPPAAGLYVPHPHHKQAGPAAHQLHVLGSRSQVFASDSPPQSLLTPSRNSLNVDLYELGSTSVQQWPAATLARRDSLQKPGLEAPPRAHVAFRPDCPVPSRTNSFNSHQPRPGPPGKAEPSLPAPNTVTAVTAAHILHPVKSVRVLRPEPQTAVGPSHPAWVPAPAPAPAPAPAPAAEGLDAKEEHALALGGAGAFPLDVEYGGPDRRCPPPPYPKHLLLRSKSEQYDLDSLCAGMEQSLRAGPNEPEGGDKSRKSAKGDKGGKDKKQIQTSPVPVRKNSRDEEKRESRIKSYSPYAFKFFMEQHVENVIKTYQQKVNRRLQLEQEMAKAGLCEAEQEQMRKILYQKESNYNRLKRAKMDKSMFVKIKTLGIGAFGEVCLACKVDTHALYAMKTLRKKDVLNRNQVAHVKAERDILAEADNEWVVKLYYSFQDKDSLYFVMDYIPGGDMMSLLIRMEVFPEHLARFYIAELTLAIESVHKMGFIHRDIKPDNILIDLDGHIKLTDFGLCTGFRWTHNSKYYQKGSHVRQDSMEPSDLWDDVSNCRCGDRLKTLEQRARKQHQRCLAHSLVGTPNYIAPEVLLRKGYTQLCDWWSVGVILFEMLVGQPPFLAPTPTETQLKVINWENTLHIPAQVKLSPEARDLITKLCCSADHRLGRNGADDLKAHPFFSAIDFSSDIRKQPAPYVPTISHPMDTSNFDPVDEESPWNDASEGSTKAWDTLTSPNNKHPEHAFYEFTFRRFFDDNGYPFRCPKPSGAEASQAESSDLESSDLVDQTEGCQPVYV
# Assay: Off-chip Mobility Shift Assay (MSA method), kinase inhibition
# Type: biochemical
# Settings: for IC50: 10 steps from 10 μM to 0.3 nM; for inhibition at 0.1 µM: read-out: inhibition (%) LATS2
# Experimental: For compound k-1:B-1, inhibitory activity evaluation (calculation of 50% inhibitory concentration (IC50)) was performed on 8 kinds of kinases (CGK2, LATS2, MSK1, p70S6K, PKACα, PKACβ, SGK2, SGK3). The activity was measured using the Off-chip Mobility Shift Assay (MSA method) described below. The compound was added such that the test concentration of k-1:B-1 was in 10 steps from the final concentration of 10 μM to 0.3 nM.
# As an analysis method of the data, the mean signal of the control well containing all reaction components was set to 0% inhibition, the mean signal without enzyme addition was set to 100% inhibition, and the inhibition rate was calculated from the mean signal of 2 wells of each test substance test. The IC50 value was obtained by approximating a plot based on the test substance concentration and inhibition rate to a 4 parameter logistics curve by using the Excel Solver add-in and by the non-linear least squares method.
# (§1) 5 μL of k-1:B-1 solution at 4-fold concentration, 5 μL of substrate/ATP/metal solution at 4-fold concentration, and 10 μL of kinase solution at 2-fold concentration, each prepared with assay buffer (20 mM HEPES, 0.01% Triton X-100, 2 mM DTT, pH 7.5), were mixed in the wells of a polypropylene 384-well plate and reacted at room temperature for 1 or 5 hr. Successively, 70 μL of Termination Buffer (QuickScout Screening Assist MSA; Carna Biosciences) was added to discontinue the reaction. Then, the substrate peptide and the phosphorylated peptide in the reaction solution were separated and quantified by the LabChip system (Perkin Elmer). The kinase reaction was evaluated by the resultant product ratio (P/(P+S)) calculated from the substrate peptide peak height (S) and the phosphorylated peptide peak height (P).
# For compounds k-1:H-7, k-1:H-1, k-1:D-1, k-1:J-1, and k-1:B-1, inhibitory rate at 100 nM was calculated on 8 kinds of kinases (CGK2, LATS2, MSK1, p70S6K, PKACα, PKACβ, SGK2, SGK3). The activity was measured using the MSA method. As an analysis method of the data, the mean signal of the control well containing all reaction components was set to 0% inhibition, the mean signal without enzyme addition was set to 100% inhibition, and the inhibition rate was calculated from the mean signal of 2 wells of each test substance test.
# as §1, with “a compound” for “k-1:B-1”
# For compounds k-1:I-1, k-1:D-1, k-1:J-1, k-1:H-1, k-1:H-7, k-1:B-1, k-5:H-1, k-1:H-3, k-1:D-4 and k-1:I-10, inhibitory activity evaluation (calculation of IC50) was performed on LATS2. The activity was measured using the Off-chip Mobility Shift Assay (MSA method) described below. The compounds were added such that the test concentration of each compound was in 10 steps from the final concentration of 10 μM to 0.3 nM.
# 5 μL of k-1:I-1, k-1:D-1, k-1:J-1, k-1:H-1, k-1:H-7, k-1:B-1, k-5:H-1, k-1:H-3, k-1:D-4 and k-1:I-10 solutions at 4-fold concentration, 5 μL of substrate/ATP/metal solution at 4-fold concentration, and 10 μL of kinase solution at 2-fold concentration, each prepared with assay buffer (20 mM HEPES, 0.01% Triton X-100, 2 mM DTT, pH 7.5), were mixed in the wells of a polypropylene 384-well plate and reacted at room temperature for 1 or 5 hr. […]
Structure (SMILES),IC50 (MSA method) [nM],inhibition at 0.1 µM [%],"inhibition at 0.1 µM (at 100 nM, MSA method) [%]"
CC/C(=N\NC(=O)NCc1cccc(O)c1)c1ccc(O)c(C)c1O [k-1:J-1],5.26,96.2,–
CCC(=NNC(=O)C(CC)Nc1ccccc1)c1ccc(O)c(C)c1O (stereo not shown) [k-1:H-7],6.57,–,95.8
CCC(=NNC(=O)CNc1ccccc1)c1ccc(O)c(C)c1O [k-1:H-1],12.9,–,92.1
CC/C(=N\NC(=O)CNc1cccc(O)c1)c1ccc(O)c(C)c1O [k-1:D-1],1.84,101,–
CC/C(=N\NC(=O)C(C)Nc1ccccc1)c1ccc(O)c(C)c1O (stereo not shown) [k-1:B-1],5.12,–,93.8

# Source: patent publication US20210253518A1, “KINASE INHIBITOR” (NISSAN CHEMICAL CORPORATION, priority 2018, published 2021)
